Test results from US9790230B2 (Hoffmann-La Roche Inc., priority 2015, dated 2017).
Read-outs that look alike come from different tables or passages of the source.

Key:
[1] = molecular target: rat TAAR1 (Rattus norvegicus (Rat), UniProt Q923Y9); experiment: Radioligand binding assay on rat TAAR1;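 also: membranes from HEK293 cells stably transfected with rat TAAR1, tritiated TAAR1 radioligand, 1 h incubation at 4 °C, nonspecific binding determined with excess unlabeled ligand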
Method: (§1) Membrane Preparation and Radioligand Binding.
HEK-293 cells stably expressing rat TAAR1 were maintained at 37° C. and 5% CO2 in DMEM high glucose medium, containing fetal calf serum (10%, heat inactivated for 30 min at 56° C.), penicillin/streptomycin (1%), and 375 μg/ml geneticin (Gibco). Cells were released from culture flasks using trypsin/EDTA, harvested, washed twice with ice-cold PBS (without Ca^2+ and Mg^2+), pelleted at 1'000 rpm for 5 min at 4° C., frozen and stored at −80° C. Frozen pellets were suspended in 20 ml HEPES-NaOH (20 mM, pH 7.4) containing 10 mM EDTA and homogenized with a Polytron (PT 6000, Kinematica) at 14′000 rpm for 20 s. The homogenate was centrifuged at 48'000×g for 30 min at 4° C. Subsequently, the supernatant was removed and discarded, and the pellet resuspended in 20 ml HEPES-NaOH (20 mM, pH 7.4) containing 0.1 mM EDTA using the Polytron (20 s at 14'000 rpm). This procedure was repeated and the final pellet resuspended in HEPES-NaOH containing 0.1 mM EDTA and homogenized using the Polytron. Typically, aliquots of 2 ml membrane portions were stored at −80° C. With each new membrane batch the dissociation constant (Kd) was determined via a saturation curve. […] Nonspecific binding was defined as the amount of 3 [H]—(S)-4-[(ethyl-phenyl-amino)-methyl]-4,5-dihydro-oxazol-2-ylamine bound in the presence of 10 M unlabeled ligand. All compounds were tested at a broad range of concentrations (10 pM to 10 μM) in duplicates. […] The 96 deep well plates were incubated for 1 hr at 4° C. Incubations were terminated by rapid filtration through Unifilter-96 plates (Packard Instrument Company) and glass filters GF/C (Perkin Elmer) presoaked for 1 hr in polyethylenimine (0.3%) and washed 3 times with 1 ml of cold binding buffer. After addition of 45 μl of Microscint 40 (PerkinElmer) the Unifilter-96 plate was sealed and after 1 hr the radioactivity counted using a TopCount Microplate Scintillation Counter (Packard Instrument Company).

[2] = molecular target: mouse TAAR1 (Mus musculus (Mouse), UniProt Q923Y8); experiment: Radioligand binding assay on mouse TAAR1
Sequence of mouse TAAR1 (Q923Y8 whole entry): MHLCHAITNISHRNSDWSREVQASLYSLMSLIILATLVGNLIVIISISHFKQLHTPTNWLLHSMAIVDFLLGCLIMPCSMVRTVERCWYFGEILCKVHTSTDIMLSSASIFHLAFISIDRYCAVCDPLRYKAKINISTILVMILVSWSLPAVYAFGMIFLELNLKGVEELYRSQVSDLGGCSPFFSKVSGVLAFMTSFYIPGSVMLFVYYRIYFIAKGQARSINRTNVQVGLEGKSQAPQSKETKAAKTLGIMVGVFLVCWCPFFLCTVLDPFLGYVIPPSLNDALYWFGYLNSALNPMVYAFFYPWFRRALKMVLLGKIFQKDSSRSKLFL
Method: Radioligand Binding Assay on Mouse TAAR1
as §1
HEK-293 cells stably expressing mouse TAAR1 were maintained at 37° C. and 5% CO2 in DMEM high glucose medium, containing fetal calf serum (10%, heat inactivated for 30 min at 56° C.), penicillin/streptomycin (1%), and 375 μg/ml geneticin (Gibco). Cells were released from culture flasks using trypsin/EDTA, harvested, washed twice with ice-cold PBS (without Ca^2+ and Mg^2+), pelleted at 1'000 rpm for 5 min at 4° C., frozen and stored at −80° C. Frozen pellets were suspended in 20 ml HEPES-NaOH (20 mM, pH 7.4) containing 10 mM EDTA and homogenized with a Polytron (PT 6000, Kinematica) at 14'000 rpm for 20 s. The homogenate was centrifuged at 48'000×g for 30 min at 4° C. Subsequently, the supernatant was removed and discarded, and the pellet resuspended in 20 ml HEPES-NaOH (20 mM, pH 7.4) containing 0.1 mM EDTA using the Polytron (20 s at 14'000 rpm). This procedure was repeated and the final pellet resuspended in HEPES-NaOH containing 0.1 mM EDTA and homogenized using the Polytron. Typically, aliquots of 2 ml membrane portions were stored at −80° C. With each new membrane batch the dissociation constant (Kd) was determined via a saturation curve. The TAAR1 radioligand ^3[H]—(S)-4-[(ethyl-phenyl-amino)-methyl]-4,5-dihydro-oxazol-2-ylamine (described in WO 2008/098857) was used at a concentration equal to the calculated Kd value, that was usually around 0.7 nM, resulting in the binding of approximately 0.5% of the radioligand and a specific binding representing approximately 70% of the total binding. Nonspecific binding was defined as the amount of ^3[H]—(S)-4-[(ethyl-phenyl-amino)-methyl]-4,5-dihydro-oxazol-2-ylamine bound in the presence of 10 M unlabeled ligand. All compounds were tested at a broad range of concentrations (10 pM to 10 μM) in duplicates. […] The 96 deep well plates were incubated for 1 hr at 4° C. Incubations were terminated by rapid filtration through Unifilter-96 plates (Packard Instrument Company) and glass filters GF/C (Perkin Elmer) presoaked for 1 hr in polyethylenimine (0.3%) and washed 3 times with 1 ml of cold binding buffer. After addition of 45 μl of Microscint 40 (PerkinElmer) the Unifilter-96 plate was sealed and after 1 hr the radioactivity counted using a TopCount Microplate Scintillation Counter (Packard Instrument Company).

Sequence of rat TAAR1 (Q923Y9 whole entry): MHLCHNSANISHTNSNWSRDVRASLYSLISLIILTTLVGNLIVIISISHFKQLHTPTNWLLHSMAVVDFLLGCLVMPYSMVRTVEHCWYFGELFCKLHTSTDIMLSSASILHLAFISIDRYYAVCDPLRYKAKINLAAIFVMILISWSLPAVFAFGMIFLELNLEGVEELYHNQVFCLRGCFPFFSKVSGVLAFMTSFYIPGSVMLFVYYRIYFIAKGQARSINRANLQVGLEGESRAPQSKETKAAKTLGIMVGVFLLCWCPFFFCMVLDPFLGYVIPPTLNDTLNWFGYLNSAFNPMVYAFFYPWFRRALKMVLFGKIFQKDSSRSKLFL

Row | Compound | Ki [1] [µM] | Ki [2] [µM] | Ki ([1]; read-out: Ki (μM) rat, rat TAAR1, HEK-293 membranes, second value of cell mouse/rat) [µM] | Ki ([2]; read-out: Ki (μM) mouse, mouse TAAR1, HEK-293 membranes, first value of cell mouse/rat) [µM]
1 | O=C(Nc1cccc([C@@H]2O[C@H]3CN[C@@H]2C3)c1)c1ccc(Cl)cc1 [Example 2, 4-Chloro-N-[3-[(1R,3S,4R)-2-oxa-5-azabicyclo[2.2.1]heptan-3-yl]phenyl]benzamide] | 0.0794 | 2.51 |  | 
2 | Cc1c(C2CC2)n[nH]c1C(=O)Nc1ccc([C@@H]2O[C@H]3CN[C@@H]2C3)cc1 [Example 69, 3-Cyclopropyl-4-methyl-N-[4-[(1R,3S,4R)-2-oxa-5-azabicyclo[2.2.1]heptan-3-yl]phenyl]-1H-pyrazole-5-carboxamide] | 0.153 | 0.0066 |  | 
3 | O=C(Nc1ccc([C@@H]2O[C@H]3CN[C@@H]2C3)cc1)c1ccc(C(F)(F)F)cn1 [Example 71, N-[4-[(1R,3S,4R)-2-Oxa-5-azabicyclo[2.2.1]heptan-3-yl]phenyl]-5-(trifluoromethyl)pyridine-2-carboxamide] | 0.0135 | 0.0054 |  | 
4 | FC(F)(F)c1ccc(Nc2ccc([C@H]3O[C@@H]4CN[C@H]3C4)cc2)nc1 [Example 19, N-[4-[(1S,3R,4S)-2-Oxa-5-azabicyclo[2.2.1]heptan-3-yl]phenyl]-5-(trifluoromethyl)pyridin-2-amine] | 0.0641 | 0.0071 |  | 
5 | FC(F)(F)c1cnc(Nc2ccc([C@@H]3O[C@H]4CN[C@@H]3C4)cc2)cn1 [Example 30, N-[4-[(1R,3S,4R)-2-Oxa-5-azabicyclo[2.2.1]heptan-3-yl]phenyl]-5-(trifluoromethyl)pyrazin-2-amine] | 0.276 | 0.0291 |  | 
6 | O=C(Nc1ccc([C@@H]2O[C@H]3CN[C@@H]2C3)cc1)c1ccc(C(F)(F)F)nc1 [Example 72, N-[4-[(1R,3S,4R)-2-Oxa-5-azabicyclo[2.2.1]heptan-3-yl]phenyl]-6-(trifluoromethyl)pyridine-3-carboxamide] | 0.0093 | 0.0153 |  | 
7 | CCc1ncc(C(=O)Nc2ccc([C@@H]3O[C@H]4CN[C@@H]3C4)cc2)cn1 [Example 74, 2-Ethyl-N-[4-[(1R,3S,4R)-2-oxa-5-azabicyclo[2.2.1]heptan-3-yl]phenyl]pyrimidine-5-carboxamide] | 0.19 | 0.109 |  | 
8 | O=C(Nc1ccc([C@@H]2O[C@H]3CN[C@@H]2C3)cc1)c1[nH]nc(C2CC2)c1F [Example 77, 3-Cyclopropyl-4-fluoro-N-[4-[(1R,3S,4R)-2-oxa-5-azabicyclo[2.2.1]heptan-3-yl]phenyl]-11H-pyrazole-5-carboxamide] |  |  | 0.137 | 0.0048
9 | FC(F)(F)c1ccc(Nc2ccc([C@@H]3O[C@H]4CN[C@@H]3C4)cc2)nc1 [Example 11, N-[4-[(1R,3S,4R)-2-Oxa-5-azabicyclo[2.2.1]heptan-3-yl]phenyl]-5-(trifluoromethyl)pyridin-2-amine] | 0.0153 | 0.0039 |  | 
10 | CC(C)n1nc(OCC(F)(F)F)cc1C(=O)Nc1ccc([C@@H]2O[C@H]3CN[C@@H]2C3)cc1 [Example 89, 2-Isopropyl-N-[4-[(1R,3S,4R)-2-oxa-5-azabicyclo[2.2.1]heptan-3-yl]phenyl]-5-(2,2,2-trifluoroethoxy)pyrazole-3-carboxamide] | 0.0026 | 0.028 |  | 
11 | CCOc1ccc(C(=O)Nc2ccc([C@@H]3O[C@H]4CN[C@@H]3C4)cc2)cn1 [Example 13, 6-Ethoxy-N-[4-[(1R,3S,4R)-2-oxa-5-azabicyclo[2.2.1]heptan-3-yl]phenyl]pyridine-3-carboxamide] | 346 | 0.0063 |  | 
